Where two headings read alike, the source gives them in different places.
Legend:
U-373 MG = experiment: MTT test, overall cell growth; assay type: cell-based, human; settings: U-373, MTT, 72 hours of incubation
Procedure: (§1) In order to characterize the in vitro activities of the compounds according to the invention, MTT tests were carried out. The MTT test, which is a well-known test in the art, is an indirect technique that rapidly measures, i.e. within 5 days, the effect of a given product on the overall cell growth. This test measures the number of metabolically active living cells that are able to transform the MTT product (3-(4,5-dimethylthiazol-2-yl)-2,5 diphenyl tetrazolium bromide), having a yellowish color, to the blue product formazan dye by mitochondrial reduction. The amount of formazan obtained at the end of the experiment is measured with a spectrophotometer and is directly proportional to the number of living cells. Determination of the optical density enables a quantitative measurement of the effect of the investigated compounds as compared to the control condition (untreated cells) and to compare it to other reference compound. In the following examples different compounds according to the invention were tested and compared to the reference compound being uscharin.
(§2) Six human cancer cell lines, described in Table C, were tested in the presence of compounds according to the invention. These cell lines covered four histological cancer types, being Glioma, colon, lung and bladder cancer. The cells were allowed to grow in 96-well micro wells with a flat bottom with an amount of 100 μl of cell suspension per well in reason to 4000 cells/well depending on cell type. Each cell line was seeded in its own cell culture medium (Table C).
(§3) After a 24-hour period of incubation at 37° C., the culture medium is replaced by 100 μl of fresh medium in which the compound to be tested has been dissolved at different required concentrations. Different compounds were tested at 10^−9 M, 5×10^−9 M, 10^−8 M, 5×10^−8 M, 10^−7 M, 5×10^−7 M, 10^−6 M, 5×10^−6 M et 10^−5 M. Each experimental condition is carried out in hexaplicate. The compounds tested are 2″ oxo-voruscharin, and compounds B, C, D, E, H and I represented in Table B above.
(§4) After 72 hours of incubation at 37° C. with the compound (experimental conditions) or without the compound (control condition), the medium was replaced by 100 μl MTT at the concentration of 1 mg/ml dissolved in RPMI. The micro wells were subsequently incubated during 3 hours at 37° C. and centrifuged at 400 g during 10 minutes. The MTT was removed and formazan crystals formed, were dissolved in 100 μl DMSO. The micro wells were shaken for 5 minutes and read on a spectrophotometer at the wavelengths of 570 nm corresponding to the maximum formazan absorbance wavelength, and of 630 nm, which is the background noise wavelength.
(§5) For each experimental condition, the mean OD associated with the SEM (standard error of the mean) for each condition (6 wells) was calculated. The percentage of remaining living cells in comparison with the control was calculated. Results of these experiments are represented in FIGS. 2 to 8.

LoVo = experiment: MTT test, overall cell growth; assay type: cell-based, human; settings: 72 hours of incubation
Procedure: as §1, §2, §3, §4, §5

A549 = experiment: MTT test, overall cell growth; assay type: cell-based, human; settings: 72 hours of incubation
Procedure: as §1, §2, §3, §4, §5

Hs683 = experiment: MTT test, overall cell growth; assay type: cell-based, human
Procedure: as §1, §2, §3, §4, §5

J82 = experiment: MTT test, overall cell growth; assay type: cell-based, human
Procedure: as §1, §2, §3, §4, §5

HCT-15 = experiment: MTT test, overall cell growth; assay type: cell-based, human
Procedure: as §1, §2, §3, §4, §5

[1] = Maximum Tolerated Dose in healthy mice; assay type: in vivo; settings: single administration in mice, healthy animals, 14 days post-injection
Procedure: The Maximum Tolerated Dose (MTD) of a given drug is defined as the maximum amount of a drug which can be administered acutely (i.e. in one i.p., i.v., s.c. or per os single dose) to healthy animals, i.e. animals not grafted with tumors. The survival times and weights of the animals are recorded up to 14 days post-injection. Five different doses of each drug are used for the determination of the MTD index. When the MTD index is higher than 160 mg/kg (i.p. administration) the drug is usually considered to be non-toxic, and the highest dose administered to tumor-bearing mice is MTD/2=80 mg/kg. Each experimental group was composed of 3 mice for the determination of the MTD index.

A549 (lung cancer) = experiment: Orthotopic lung cancer model; assay type: in vivo, mice; settings: for T/C index: A549 orthotopic, three times a week
Procedure: Three types of results were obtained with in vivo anti-tumor pharmacology: 1) the cumulative toxicity of chemotherapeutic administrations through recording the weights of the tumor-bearing mice during treatment, 2) the actual anti-tumor effect exerted at tumor growth level. If the tumor models are grafted subcutaneously (s.c.), tumor size is measured three times a week by means of a caliper and expressed as an area (mm^2) by multiplying together the two largest perpendicular diameters, and 3) the gain in survival for the animals treated, which is evaluated by means of the T/C index. This index is the ratio between the median survival time of the group of treated animals (T) and that of the control group. The drug is considered to be active if the T/C value is above 130% (P<0.05), and toxic for a value lower than 70%.
The antitumoral activity of compound B was evaluated in different xenografted models: sub-cutanous model: MCF-7-TD5 (breast cancer) and C32 (melanoma cancer) and orthotopic model: A549 (lung cancer).
Lung cancer is the leading cause of cancer deaths worldwide. Most patients die of progressive metastatic disease despite aggressive local and systemic therapies. The pathogenesis of lung cancer remains highly elusive due to its aggressive biologic nature and considerable heterogeneity, as compared to other cancers. Orthotopic lung cancer models are described in the literature using endobronchial, intrathoracic or intravenous injection of tumor cell suspensions and by surgical implantation of fresh tumor tissue. The tumor cells are directly injected into the lung of nude mice. The advantages of orthotopic models include improved tumor take and enhanced invasive and metastatic properties.
Compound B was assayed at DMT/2 (40 mg/kg), DMT/4 (20 mg/kg) and DMT/8 (10 mg/kg) three times a week. […] These values are statistically significant.
FIG. 21 represents the death rate of nine mice in each of the control and test groups during the experiment. Kaplan-Meier statistical analysis was used. The statistics value underlines the general fit of the test control in comparison with the general fit of the control group. […] The level significance was p<0.05.

**Q.** Which IC50 (U-373 MG; Homo sapiens, U373 MG) does the source give for `CC1CC2(NC(=O)CS2)C2(O)OC3CC4(C=O)C(CCC5C4CCC4(C)C(C6=CC(=O)OC6)CCC54O)CC3OC2O1` (stereo not shown) [2″oxo-voruscharin, 2″ oxo-voruscharin] here?
**A.** The IC50 was 10 to 50 nM.

**Q.** What about the IC50 (LoVo; Homo sapiens) of the same compound?
**A.** The IC50 was 5 to 10 nM.

**Q.** What about the IC50 (A549; Homo sapiens) of the same compound?
**A.** The IC50 was 10 to 50 nM.

**Q.** What about the IC50 (Hs683; Homo sapiens, Hs 683, Hs683, MTT, 72 hours of incubation, read-out: IC50 value) of the same compound?
**A.** Its IC50 is 1 to 5 nM.

**Q.** What about the IC50 (Hs683; Homo sapiens, Hs 683, Hs683, Table E, concentration used for flow cytometry, chosen in accordance with MTT results, read-out: IC50) of the same compound?
**A.** The IC50 was 170 nM.

**Q.** And the IC30 (Hs683; Hs683, Table E, concentration which kills 30% of the cell population)?
**A.** Its IC30 is 8.3 nM.

**Q.** What about the IC50 (J82; Homo sapiens, J82, MTT, 72 hours of incubation, read-out: IC50 value) of the same compound?
**A.** The IC50 was > 10 µM.

**Q.** And the IC50 (J82; Homo sapiens, J82, Table E, concentration used for flow cytometry, chosen in accordance with MTT results, read-out: IC50)?
**A.** Its IC50 is 4.1 µM.

**Q.** And the IC30 (J82; J82, Table E, concentration which kills 30% of the cell population)?
**A.** Its IC30 is 1.7 µM.

**Q.** And the IC30 (HCT-15; HCT-15, Table E, concentration which kills 30% of the cell population)?
**A.** The IC30 was 4.1 nM.

**Q.** And the IC50 (HCT-15; Homo sapiens, HCT-15, MTT, 72 hours of incubation, read-out: IC50 value)?
**A.** The IC50 was 10 to 50 nM.

**Q.** And the IC50 (HCT-15; Homo sapiens, HCT-15, Table E, concentration used for flow cytometry, chosen in accordance with MTT results, read-out: IC50)?
**A.** Its IC50 is 12 nM.

**Q.** What about the MTD index [1] of the same compound?
**A.** The MTD index was 20 mg/kg.

**Q.** Which results are given for `CC1CC2(NC(=O)CS2)C2(O)OC3CC4(CO)C(CCC5C4CCC4(C)C(C6=CC(=O)OC6)CCC54O)CC3OC2O1` (stereo not shown) [Compound B]?
**A.** IC50 (U-373 MG): 10 to 50 nM; IC50 (LoVo): 1 to 5 nM; IC50 (A549): 10 nM; IC50 (Hs683; Hs683, MTT, 72 hours of incubation, read-out: IC50 value): 1000 to 5000 nM; IC50 (J82; J82, MTT, 72 hours of incubation, read-out: IC50 value): 5 to 10 µM; IC50 (HCT-15; HCT-15, MTT, 72 hours of incubation, read-out: IC50 value): 10 to 50 nM; MTD index [1]: 80 mg/kg; T/C index (A549 (lung cancer); 3×40 mg/kg): 124%; T/C index (A549 (lung cancer); 7×20 mg/kg): 152%; T/C index (A549 (lung cancer); 10×10 mg/kg): 186%; weight of A549-tumor bearing mice (toxic side effects) (A549 (lung cancer); constant administrations, 40, 20 and 10 mg/kg): did not lose any significant weight; weight of A549-tumor bearing mice (A549 (lung cancer); first week of administration at 40 mg/kg): significant loss of weight
